The record followed here is patent publication US20100317850A1 (priority 2008, published 2010).

pIC50: −log10 of the molar value.

The subject of the test is Aβ42 production. Nature of the test: Quantification of Aβ peptide in culture of neurons from rat fetus brain (Aβ ELISA). It counts as cell-based. Conditions: Neuron, 72 h; rat primary neuronal culture (cerebral cortex, embryonic day 18 Wistar rats); medium collected three days after addition of the compound; Aβx-42 ELISA; read-out: Aβ42 production reducing effect IC50. As for the experimental part: Quantification of Aβ Peptide in Culture of Neurons from Rat Fetus Brain
(1) Rat Primary Neuronal Culture
Primary neuronal cultures were prepared from the cerebral cortex of embryonic day 18 Wistar rats (Charles River Japan, Yokohama, Japan). Specifically, the embryos were aseptically removed from pregnant rats under ether anesthesia. The brain was isolated from the embryo and immersed in an ice-cold L-15 medium (such as Invitrogen Corp. Cat #11415-064, Carlsbad, Calif., USA, or SIGMA L1518). The cerebral cortex was collected from the isolated brain under a stereoscopic microscope. The cerebral cortex fragments collected were enzymatically treated in an enzyme solution containing 0.25% trypsin (Invitrogen Corp. Cat #15050-065, Carlsbad, Calif., USA) and 0.01% DNase (Sigma D5025, St. Louis, Mo., USA) at 37° C. for 30 minutes to disperse the cells. Here, the enzymatic reaction was stopped by adding inactivated horse serum to the solution. The enzymatically treated solution was centrifuged at 1,500 rpm for five minutes to remove the supernatant. 5 to 10 mL of a medium was added to the resulting cell mass. Neurobasal medium (Invitrogen Corp. Cat #21103-049, Carlsbad, Calif., USA) supplemented with 2% B27 supplement (Invitrogen Corp. Cat #17504-044, Carlsbad, Calif., USA), 25 μM 2-mercaptoethanol (2-ME, WAKO Cat #139-06861, Osaka, Japan), 0.5 mM L-glutamine (Invitrogen Corp. Cat #25030-081, Carlsbad, Calif., USA), and Antibiotics-Antimycotics (Invitrogen Corp. Cat #15240-062, Carlsbad, Calif., USA) was used as the medium (Neurobasal/B27/2-ME). However, the above Neurobasal medium not supplemented with 2-ME (Neurobasal/B27) was used for the assay. The cells were redispersed by mild pipetting of the cell mass to which the medium was added. The cell dispersion was filtered through a 40-μm nylon mesh (Cell Strainer, Cat #35-2340, Becton Dickinson Labware, Franklin Lakes, N.J., USA) to remove the remaining cell mass, and thus a neuronal cell suspension was obtained. The neuronal cell suspension was diluted with the medium and then plated in a volume of 100 μL/well at an initial cell density of 5×10^5 cells/cm^2 in a 96-well polystyrene culture plate pre-coated with poly-L or D-lysine (Falcon Cat #35-3075, Becton Dickinson Labware, Franklin Lakes, N.J., USA coated with poly-L-lysine using the method shown below, or BIOCOAT™ cell environments Poly-D-lysine cell ware 96-well plate, Cat #35-6461, Becton Dickinson Labware, Franklin Lakes, N.J., USA). Poly-L-lysine coating was carried out as follows. 100 μg/mL of a poly-L-lysine (SIGMA P2636, St. Louis, Mo., USA) solution was aseptically prepared with a 0.15 M borate buffer (pH 8.5). […] of the solution was added to the 96-well polystyrene culture plate and incubated at room temperature for one or more hours or at 4° C. overnight or longer. Thereafter, the coated 96-well polystyrene culture plate was washed with sterile water four or more times, and then dried or rinsed with, for example, sterile PBS or medium, and used for cell plating. The plated cells were cultured in the culture plate at 37° C. in 5% CO2-95% air for one day. Then, the total amount of the medium was replaced with a fresh Neurobasal™/B27/2-ME medium, and then the cells were cultured for further three days.
The drug was added to the culture plate on Day 4 of culture as follows. The total amount of the medium was removed from the wells, and 180 μL/well of Neurobasal medium not containing 2-ME and containing 2% B-27 (Neurobasal/B27) was added thereto. A solution of the test compound in dimethyl sulfoxide (hereinafter abbreviated as DMSO) was diluted with Neurobasal/B27 to a concentration 10-fold higher than the final concentration. 20 μL/well of the dilution was added to and sufficiently mixed with the medium. The final DMSO concentration was 1% or less. Only DMSO was added to the control group.
The cells were cultured for three days after addition of the compound, and the total amount of the medium was collected. […]
One may read the pIC50 as the negative decadic logarithm of the IC50, by convention in mol/L. In the case of `CO[C@H]1C[C@H]2CSC(N)=N[C@@]2(c2cc(NC(=O)c3ccc(C#N)cn3)ccc2F)C1` (relative stereo) [Example 31, (+)-N-[3-((4aR*,6S*,7aS*)-2-amino-6-methoxy-4a,5,6,7-tetrahydro-4H-cyclopenta[d][1,3]thiazin-7a-yl)-4-fluorophenyl]-5-cyanopyridine-2-carboxamide], the pIC50 is 8.40.

`CO[C@@H]1C[C@H]2CSC(N)=N[C@@]2(c2cc(NC(=O)c3ccc(C#N)cn3)ccc2F)C1` (relative stereo) [Example 32, (+)-N-[3-((4aR*,6R*,7aS*)-2-amino-6-methoxy-4a,5,6,7-tetrahydro-4H-cyclopenta[d][1,3]thiazin-7a-yl)-4-fluorophenyl]-5-cyanopyridine-2-carboxamide]: the pIC50 is 8.96.

Consider `N#Cc1ccc(C(=O)Nc2ccc(F)c([C@]34CCCCC[C@H]3CSC(N)=N4)c2)nc1` (relative stereo) [Example 33, (+)-N-[3-((4aR*,9aS*)-2-amino-4a,5,6,7,8,9-hexahydro-4H-cyclohepta[d][1,3]thiazin-9a-yl)-4-fluorophenyl]-5-cyanopyridine-2-carboxamide], for which the pIC50 was 8.00.

In the case of `CC[C@H]1OC[C@]2(c3cc(NC(=O)c4ccc(C#N)cn4)ccc3F)N=C(N)SC[C@H]12` (relative stereo) [Example 49, N-[3-((4aS*,5R*,7aS*)-2-amino-5-ethyl-4a,5-dihydro-4H-furo[3,4-d][1,3]thiazin-7a-yl)-4-fluorophenyl]-5-cyanopyridine-2-carboxamide], the pIC50 is 9.10.

For the molecule `CC[C@H]1OC[C@]2(c3cc(NC(=O)c4cnc(OC(F)F)cn4)ccc3F)N=C(N)SC[C@H]12` (relative stereo) [Example 50, N-[3-((4aS*,5R*,7aS*)-2-amino-5-ethyl-4a,5-dihydro-4H-furo[3,4-d][1,3]thiazin-7a-yl)-4-fluorophenyl]-5-difluoromethoxypyrazine-2-carboxamide], the pIC50 was 9.05.

Take `CC[C@H]1OC[C@]2(c3cc(NC(=O)c4ccc(Cl)cn4)ccc3F)N=C(N)SC[C@H]12` (relative stereo) [Example 51, N-[3-((4aS*,5R*,7aS*)-2-amino-5-ethyl-4a,5-dihydro-4H-furo[3,4-d][1,3]thiazin-7a-yl)-4-fluorophenyl]-5-chloropyridine-2-carboxamide]: the pIC50 is 8.80.

Regarding `CC[C@H]1OC[C@]2(c3cc(NC(=O)c4cnc(OCF)cn4)ccc3F)N=C(N)SC[C@H]12` (relative stereo) [Example 52, N-[3-((4aS*, 5R*,7aS*)-2-amino-5-ethyl-4a,5-dihydro-4H-furo[3,4-d][1,3]thiazin-7a-yl)-4-fluorophenyl]-5-fluoromethoxypyrazine-2-carboxamide], the pIC50 is 8.70.

Turning to `CC[C@H]1OC[C@]2(c3cc(NC(=O)c4cnc(C(F)F)cn4)ccc3F)N=C(N)SC[C@H]12` (relative stereo) [Example 53, N-[3-((4aS*,5R*,7aS*)-2-amino-5-ethyl-4a,5-dihydro-4H-furo[3,4-d][1,3]thiazin-7a-yl)-4-fluorophenyl]-5-difluoromethylpyrazine-2-carboxamide], the negative-log IC50 (pIC50) was 8.70.

Consider `C[C@H]1OC[C@]2(c3cc(NC(=O)c4ccc(C#N)cn4)ccc3F)N=C(N)SC[C@H]12` (relative stereo) [Example 54, N-[3-((4aS*,5R*,7aS*)-2-amino-5-methyl-4,5-dihydro-4H-furo[3,4-d][1,3]thiazin-7a-yl-4-fluorophenyl]-5-cyanopyridine-2-carboxamide], for which the pIC50 was 8.77.

`C[C@H]1OC[C@]2(c3cc(NC(=O)c4cnc(OC(F)F)cn4)ccc3F)N=C(N)SC[C@H]12` (relative stereo) [Example 55, N-[3-((4aS*,5R*,7aS*)-2-amino-5-methyl-4a,5-dihydro-4H-furo[3,4-d][1,3]thiazin-7a-yl)-4-fluorophenyl]-5-difluoromethoxypyrazine-2-carboxamide]: the pIC50 was 8.96.

Regarding `C[C@H]1OC[C@]2(c3cc(NC(=O)c4ccc(Cl)cn4)ccc3F)N=C(N)SC[C@H]12` (relative stereo) [Example 56, N-[3-((4aS*,5R*,7aS*)-2-amino-5-meth 1-4a,5-dihydro-4H-furo[3,4-d][1,3]thiazin-7a-yl)-4-fluorophenyl]-5-chloropyridine-2-carboxamide], the pIC50 is 8.52.

Consider `C[C@H]1OC[C@]2(c3cc(NC(=O)c4cnc(OCF)cn4)ccc3F)N=C(N)SC[C@H]12` (relative stereo) [Example 57, N-[3-((4aS*,5R*,7aS*)-2-amino-5-methyl-4a,5-dihydro-4H-furo[3,4-d][1,3]thiazin-7a-yl)-4-fluorophenyl]-5-fluoromethoxypyrazine-2-carboxamide], for which the pIC50 was 8.52.

Consider `C[C@H]1OC[C@]2(c3cc(NC(=O)c4cnc(C(F)F)cn4)ccc3F)N=C(N)SC[C@H]12` (relative stereo) [Example 58, N-[3-((4aS*,5R*,7aS*)-2-amino-5-methyl-4a,5-dihydro-4H-furo[3,4-d][1,3]thiazin-7a-yl)-4-fluorophenyl]-5-difluoromethylpyrazine-2-carboxamide], for which the pIC50 is 8.15.

As for `C[C@H]1OC[C@]2(c3cc(NC(=O)c4ccc(OC(F)F)cn4)ccc3F)N=C(N)SC[C@H]12` (relative stereo) [Example 59, N-[3-((4aS*,5R*,7aS*)-2-amino-5-methyl-4a,5-dihydro-4H-furo[3,4-d][1,3]thiazin-7a-yl)-4-fluorophenyl]-5-difluoromethoxypyridine-2-carboxamide], the pIC50 is 8.70.

In the case of `C[C@H]1OC[C@]2(c3cc(NC(=O)c4ccncn4)ccc3F)N=C(N)SC[C@H]12` (relative stereo) [Example 60, N-[3-((4aS*,5R*,7aS*)-2-amino-5-methyl-4a,5-dihydro-4H-furo[3,4-d][1,3]thiazin-7a-yl)-4-fluorophenyl]-pyrimidine-4-carboxamide], the pIC50 is 7.92.

Consider `CO[C@H]1CC[C@]2(c3cc(NC(=O)c4ccc(C#N)cn4)ccc3F)N=C(N)SC[C@H]12` (relative stereo) [Example 63, N-[3-((4aS*,5S*,7aS*)-2-amino-5-methoxy-4a,5,6,7-tetrahydro-4H-cyclopenta[d][1,3]thiazin-7a-yl)-4-fluorophenyl]-5-cyanopyridine-2-carboxamide], for which the pIC50 was 7.96.

For the molecule `CO[C@H]1CC[C@]2(c3cc(NC(=O)c4cnc(OC(F)F)cn4)ccc3F)N=C(N)SC[C@H]12` (relative stereo) [Example 64, N-[3-((4aS*,5S*,7aS*)-2-amino-5-methoxy-4a,5,6,7-tetrahydro-4H-cyclopenta[d][1,3]thiazin-7a-yl)-4-fluorophenyl]-5-difluoromethoxypyrazine-2-carboxamide], the pIC50 was 8.10.

On to `CO[C@@H]1CC[C@]2(c3cc(NC(=O)c4ccc(C#N)cn4)ccc3F)N=C(N)SC[C@H]12` (relative stereo) [Example 65, N-[3-((4aS*,5R*,7aS*)-2-amino-5-methoxy-4a,5,6,7-tetrahydro-4H-cyclopenta[d][1,3]thiazin-7a-yl)-4-fluorophenyl]-5-cyanopyridine-2-carboxamide], for which the pIC50 is 7.42.
